Results: patent US9783535B2 (priority 2012, dated 2017)

Assays:
a3b4 nAChRs = a3b4 nAChRs (Homo sapiens, UniProt P30926+P32297); assay: Relative potency at a3b4 nAChRs, epibatidine-induced calcium response; format: cell-based
Experimental: The HEK293 (a3b4, a4b2 and a7) and SH-SY5Y cell lines (a3b4) expressing nAChRs are used. Validated assays optimized with respect to sensitivity, dynamic range, signal intensity and stability for chemical probe validation and SAR refinement are used.
Nicotinic functional assays are performed using the Molecular Devices FLIPR® Calcium 5 Assay Kit. HEK293 cells overexpressing α3β4, α4β2 or α7 (50,000 cells per well in 100 μl growth media) and are plated in clear bottom black walled 96-well microplates and incubated for 24-48 hours at 37° C., 5% CO2 until a 80-90% confluent monolayer is formed. On the day of the assay, 100 μl of Calcium 5 Dye is added to each well. Following addition of dye, cells are incubated at 25° C. for 60 minutes. Following dye loading, 50 μl of a 5× solution of reference or test compound of appropriate concentration range (0.01-30 μM), prepared in 20 mM HEPES pH 7.4 in HBSS, is added to each well. Plates are then transferred to the Molecular Devices Flexstation® which transfers 50 μL of a 5× solution (500 nM) of epibatine to each well to initiate the Ca+2 flux. Additional wells (in quadruplicate) are prepared with no added test or reference ligand for measurement of 100% flux. The RFU (relative fluorescence units) in the presence of the test or reference compounds is then expressed on the percent scale. The percent inhibition of epibatidine induced Ca^+2 flux is calculated as follows: % inhibition=100%−% RFU (relative fluorescence units). The IC50 values for reference and test compounds are obtained by fitting normalized RFU data using Graphpad Prism software.

[1] = CNS penetration across the blood brain barrier; parameters: species or system mice; conditions: mouse, in vivo
Experimental: Mice are dosed with compounds. Brain to blood ratios are determined by HPLC and LC/MS/MS analysis following oral administration of the test compounds in mice.

[2] = molecular target: T1, kappa opioid receptor (kOR) (Homo sapiens, UniProt P41145); assay: Kappa opioid receptor binding; conditions: read-out: Affinity at kappa opioid receptor
T1 construct: expressed in transfected cells; host or cells: CHO or HEK293 (membranes)
Experimental: Established radioligand binding methods are used to evaluate the ability of the compounds to block reuptake of scrotonin and dopamine in membrane preparations of synaptosomes. Equilibrium binding affinity values is determined for each compound at opioid receptors (μ and κ subtypes) and biogenic amine transporters (DAT and SERT). Where possible, binding experiments utilize membranes derived from CHO or HEK293 cells engineered to overexpress the human form of the receptor or transporter of interest. Radiolabeling of opioid receptors, and biogenic amine transporters utilizes conventional radioligands, buffers and incubation conditions according to published assays.
Test compounds, reference compounds and the radioligand (Kd value) are added to binding buffer. Assays are run with test or reference compound over a range of concentration (0.0001-10 uM) in triplicate using a 96-well sample plate containing radioligands specific for the target receptor or transporter. […] Bound radioactivity is counted in a Microbeta scintillation counter. Total bound radioactivity is estimated from triplicate wells containing no test or reference compound, together with nonspecific binding and filter blanks. The average bound radioactivity in the presence of the test compounds is expressed % inhibition=100%−% radioactivity bound. […]

[3] = tested on: panel of over 50 receptors, transporters, ion channels, second messengers, growth factor receptors and enzymes; assay: Binding panel at physiologically relevant concentrations
Source text: The association between cigarette smoking and the presence and severity of suicidal behavior across major psychiatric disorders may be related to lower brain serotonin function in smokers with depression).

Sequence of a3b4 nAChRs (P32297 32-505): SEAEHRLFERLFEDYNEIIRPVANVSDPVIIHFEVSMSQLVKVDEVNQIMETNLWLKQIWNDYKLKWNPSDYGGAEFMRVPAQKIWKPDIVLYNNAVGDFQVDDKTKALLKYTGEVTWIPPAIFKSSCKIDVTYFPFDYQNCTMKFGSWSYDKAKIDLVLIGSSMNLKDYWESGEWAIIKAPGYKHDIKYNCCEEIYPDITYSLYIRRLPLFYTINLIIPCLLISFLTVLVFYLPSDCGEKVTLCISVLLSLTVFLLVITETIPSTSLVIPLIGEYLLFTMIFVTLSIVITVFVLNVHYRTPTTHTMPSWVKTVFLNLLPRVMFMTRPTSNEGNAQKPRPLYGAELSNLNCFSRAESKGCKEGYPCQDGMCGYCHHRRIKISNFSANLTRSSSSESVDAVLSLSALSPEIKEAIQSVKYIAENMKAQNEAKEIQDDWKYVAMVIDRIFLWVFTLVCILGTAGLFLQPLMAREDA
Sequence of a3b4 nAChRs (P30926 22-498): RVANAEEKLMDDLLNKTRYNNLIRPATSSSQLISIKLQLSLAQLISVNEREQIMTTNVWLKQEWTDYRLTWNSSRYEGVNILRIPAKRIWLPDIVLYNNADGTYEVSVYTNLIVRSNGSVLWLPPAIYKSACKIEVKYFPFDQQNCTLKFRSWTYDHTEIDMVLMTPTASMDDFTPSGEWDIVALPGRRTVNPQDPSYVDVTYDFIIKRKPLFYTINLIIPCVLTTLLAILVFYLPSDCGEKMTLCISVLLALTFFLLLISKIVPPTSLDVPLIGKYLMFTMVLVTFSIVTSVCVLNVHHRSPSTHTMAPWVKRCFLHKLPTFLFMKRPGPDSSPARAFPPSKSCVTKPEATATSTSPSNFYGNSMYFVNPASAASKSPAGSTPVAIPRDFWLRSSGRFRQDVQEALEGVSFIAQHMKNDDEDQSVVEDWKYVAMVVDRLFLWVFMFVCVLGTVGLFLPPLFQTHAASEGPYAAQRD
T1 sequence (P41145 whole entry): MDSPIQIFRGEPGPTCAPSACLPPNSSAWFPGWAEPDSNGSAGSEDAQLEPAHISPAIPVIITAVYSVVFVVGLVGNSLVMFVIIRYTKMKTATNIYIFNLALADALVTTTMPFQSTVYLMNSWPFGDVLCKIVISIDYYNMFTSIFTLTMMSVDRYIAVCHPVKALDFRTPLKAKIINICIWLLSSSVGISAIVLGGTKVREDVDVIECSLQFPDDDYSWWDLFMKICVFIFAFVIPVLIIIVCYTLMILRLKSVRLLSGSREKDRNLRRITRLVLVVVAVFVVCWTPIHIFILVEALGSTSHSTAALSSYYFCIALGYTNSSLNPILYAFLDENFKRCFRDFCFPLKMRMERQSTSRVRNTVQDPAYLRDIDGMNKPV

Compound	IC50 of the reference 18-MC behind the ratio (a3b4 nAChRs; a3b4 nAChRs, bracketed value in Table 4) [nM]	Ratio from 18-MC (a3b4 nAChRs; relative potency at a3b4 nAChRs, 18-MC = 1)	Crossing of the BBB and brain concentration [1]	Ki [2] [nM]	Targets bound in the panel [3]	Potency as inhibitor of the epibatidine-induced calcium response compared with 18-MC and noribogaine (a3b4 nAChRs; a3b4 nAChRs)
COCC[C@H]1CC2CN3CCc4c([nH]c5ccccc45)[C@](C(=O)OC)(C2)[C@H]13 [Compound 18-MC, 18-methoxycoronaridine]	4000	1	cross the BBB and reach micromolar concentrations in brain	–	–	–
CC[C@H]1CC2C[C@H]3c4[nH]c5ccc(O)cc5c4CCN(C2)C13 [Noribogaine, 12-hydroxyibogamine]	–	–	cross the BBB and reach micromolar concentrations in brain	1000	only bound to SERT, DAT, mu and kappa opioid receptors	–
Ibogaine	–	–	–	–	–	more potent inhibitors than 18-MC (18-methoxycoronaridine) and noribogaine
